From ChEMBL document CHEMBL5376007, “Discovery of Novel PD-L1 Inhibitors That Induce the Dimerization, Internalization, and Degradation of PD-L1 Based on the Fragment Coupling Strategy” (J Med Chem, 2023)
Active and inactive are the calls of the source. The calls are words filed in the database; no cut-off is given here.

How the values were obtained:
[1] = target: Programmed cell death protein 1/Programmed cell death 1 ligand 1 (Homo sapiens, UniProt Q9NZQ7); experiment: Inhibition of interaction of Fc(IgG1)-Avi)-(Biotin)-fused human PDL1 (19 to 239 residues)/Eu-labeled human PD-1 (25 to 167 residues) expressed in HEK293 cells pretreated with PDL1 for 15 mins followed by PD-1 addition and measured after 90 mins by TR-FRET assay; type: cell-based
Chain of Programmed cell death protein 1/Programmed cell death 1 ligand 1 (Q15116 whole entry, the tested form may be a part): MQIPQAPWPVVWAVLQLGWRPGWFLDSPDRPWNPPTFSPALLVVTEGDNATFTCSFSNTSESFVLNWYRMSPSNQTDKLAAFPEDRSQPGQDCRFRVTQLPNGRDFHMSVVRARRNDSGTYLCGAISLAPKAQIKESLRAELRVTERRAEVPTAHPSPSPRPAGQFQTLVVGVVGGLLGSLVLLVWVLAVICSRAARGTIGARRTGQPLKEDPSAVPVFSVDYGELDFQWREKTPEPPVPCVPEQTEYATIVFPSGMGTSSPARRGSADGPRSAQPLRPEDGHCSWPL
Chain of Programmed cell death protein 1/Programmed cell death 1 ligand 1 (Q9NZQ7 whole entry, the tested form may be a part): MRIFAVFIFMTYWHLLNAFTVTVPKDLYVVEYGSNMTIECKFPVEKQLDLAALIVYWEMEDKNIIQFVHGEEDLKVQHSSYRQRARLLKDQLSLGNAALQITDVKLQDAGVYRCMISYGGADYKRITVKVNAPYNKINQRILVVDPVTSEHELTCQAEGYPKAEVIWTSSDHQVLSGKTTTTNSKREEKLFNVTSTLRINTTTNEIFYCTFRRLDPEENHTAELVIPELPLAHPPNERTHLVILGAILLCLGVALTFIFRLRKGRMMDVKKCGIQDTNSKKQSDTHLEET

[2] = target: Programmed cell death 1 ligand 1 (Homo sapiens, UniProt Q9NZQ7); experiment: Inhibition of human recombinant PDL1 expressed in HEK293 cells assessed as restoration of Jurkat T cell activity by measuring increase in IFNgamma secretion at 1 uM incubated for 24 hrs by ELISA; type: cell-based
Chain of Programmed cell death 1 ligand 1 (Q9NZQ7 whole entry): as the sequence (Q9NZQ7 whole entry, the tested form may be a part) above

## Cc1c(-c2cccc(-c3nnc(Nc4cccc(CNCCO)c4)o3)c2)cccc1-c1nnc(Nc2cccc(CN3CC[C@@H](O)C3)c2)o1
[1]
  IC50: 51.6 nM

## COc1nc(NC(=O)c2cccc(-c3cccc4c3CC[C@@H]4Oc3nc(OC)c(CNCCNC(C)=O)cc3Cl)c2Cl)ccc1CNCCNC(C)=O
[1]
  IC50: 22.1 nM

## Cc1c(-c2nnc(Nc3cccc(CNCCO)c3)o2)cccc1-c1cccc(-c2nnc(Nc3cccc(CNCCO)c3)o2)c1C
[1]
  IC50: 78.4 nM

## Cc1c(C(=O)Nc2ccc(CNCCO)cc2)cccc1-c1cccc(-c2nnc(Nc3cccc(CNCCO)c3)o2)c1C
[1]
  IC50: 127 nM

## COc1nc(O[C@H]2CCc3c(-c4cccc(C(=O)Nc5ccc(CNCCO)cn5)c4Cl)cccc32)c(Cl)cc1CNCCO
[1]
  IC50: 4.3 nM

## Cc1c(-c2ccc(CNCCO)cc2)cccc1-c1cccc(-c2nnc(Nc3cccc(CNCCO)c3)o2)c1C
[1]
  IC50: 37.2 nM

## COc1nc(O[C@H]2CCc3c(-c4cccc(C(=O)Nc5ccc(CN6CCC7(CC6)CNC(=O)C7)cn5)c4Cl)cccc32)c(Cl)cc1CN1CCC2(CC1)CNC(=O)C2
[1]
  IC50: 17.2 nM

## CC(=O)NCCNCc1cccc(Nc2nnc(-c3cccc(-c4cccc(-c5nnc(Nc6cccc(CNCCNC(C)=O)c6)o5)c4C)c3C)o2)c1
[1]
  IC50: 58.8 nM

## Cc1c(-c2nnc(Nc3cccc(CNCC(=O)O)c3)o2)cccc1-c1cccc(-c2nnc(Nc3cccc(CNCC(=O)O)c3)o2)c1C
[1]
  IC50: 68.8 nM

## Cc1c(-c2ccccc2)cccc1-c1nnc(Nc2cccc(CNCCO)c2)o1
[1]
  IC50: 27.8 nM

## COc1nc(O[C@H]2CCc3c(-c4cccc(C(=O)Nc5ccc(CNCCNC(C)=O)cn5)c4Cl)cccc32)c(Cl)cc1CNCCNC(C)=O
[2]
  inhibition: Active
[1]
  IC50: 4.1 nM

## Cc1c(-c2nnc(Nc3cccc(CN4CC[C@@H](O)C4)c3)o2)cccc1-c1cccc(-c2nnc(Nc3cccc(CN4CC[C@@H](O)C4)c3)o2)c1C
[2]
  inhibition: Active
[1]
  IC50: 30.9 nM

## COc1nc(O[C@H]2CCc3c(-c4cccc(C(=O)Nc5ccc(CNCCO)c(F)n5)c4Cl)cccc32)c(Cl)cc1CNCCO
[1]
  IC50: 16.1 nM

## CC(=O)NCCNCc1ccc(NC(=O)c2cccc(-c3cccc(-c4nnc(Nc5cccc(CNCCO)c5)o4)c3C)c2C)nc1
[1]
  IC50: 42 nM

## CC(=O)NCCNCc1cccc(Nc2nnc(-c3cccc(-c4cccc(-c5nnc(Nc6cccc(CNCCO)c6)o5)c4C)c3C)o2)c1
[1]
  IC50: 38 nM

## Cc1c(-c2nnc(Nc3ccc(CN4CC[C@@H](O)C4)cc3)o2)cccc1-c1cccc(-c2nnc(Nc3cccc(CN4CC[C@@H](O)C4)c3)o2)c1C
[1]
  IC50: 1180 nM
